From PubChem BioAssay AID849 (SRMLSC, 2007)
The source made the active and inactive calls. The rule behind the calls is not given here.

The compounds below were run on Saccharomyces cerevisiae lifespan shortening, growth inhibition (assay: Saccharomyces cerevisiae growth inhibition potency – dose response (AID 849);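 note: yeast growth read as optical density after two days at 30 degrees C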).
Compound `Cc1ccc2c(c1)C(=NC1CCCCC1)c1cc3ccccc3nc1-2` has an IC50 of 41.3 µM. Compound `COc1ccc(-c2cc(=O)n(-c3nc4ccccc4[nH]3)[nH]2)cc1` has an IC50 of 12.5 µM. In the case of `Cc1ccc(-n2c(Cl)c(Cl)nc(Cl)c2=O)cc1`, the IC50 is reported as 14.6 µM. Work on `CCCCc1ccc(NC(=S)Nc2ccc(Nc3ccc(OC)cc3)cc2)cc1` yielded an IC50 of 33.1 µM. `CC1=NNC(=O)/C1=C\c1cn(-c2ccccc2)nc1-c1cccs1` showed an IC50 of 36.1 µM. In the case of `CCOC(=O)c1c(NC(=S)Nc2ccc(Cl)cc2)sc2c1CCN(C)C2`, the IC50 is reported as 7.82 µM. `Cc1ccc(-c2nnc3ccc(SC(C)C(=O)O)nn23)cc1` (centres undefined) was tested, and the IC50 was > 100 µM (inactive). `O=C1C=C(c2ccc(Cl)cc2)C(=O)N1Nc1ccccc1` showed an IC50 of 4.66 µM. `O=S(=O)(/N=C(\Sc1ccc(Cl)cc1)c1ccccc1)c1ccccc1` showed an IC50 of 49.2 µM. With `CC(C)(C)n1nc(-c2ccc(Cl)cc2)c2c(N)ncnc21` the IC50 was 20.7 µM. With `O=C(CSC1=NS(=O)(=O)c2ccccc21)Nc1ccccc1` the IC50 was > 100 µM (inactive). Compound `Cc1ccc(/C=C/C(=O)c2ccccc(=O)c2O)c(C)c1` has an IC50 of 4.42 µM. For `S=C(NCc1ccc(Cl)cc1)NC12CC3CC(CC(C3)C1)C2`, the IC50 was > 100 µM (inactive). `Cc1cccc(OCCN2CSC(=S)N(C)C2)c1` gave an IC50 of 13 µM. For `CN1CCc2cc3c(c4c2[C@H]1[C@H](O)c1ccccc1-4)OCO3`, the IC50 was 35.4 µM. In the case of `CCOC(=O)N1CCN(C(=O)Cn2nc(C)c3sc4ccccc4c3c2=O)CC1`, the IC50 is reported as > 100 µM (inactive). With `CC(=O)NC1C(=O)N=C(SCC(=O)NC2CCCCC2)NC1=O` (centres undefined) the IC50 was > 100 µM (inactive). For `Oc1c(I)cc(I)c2cccnc12`, the IC50 was 23.9 µM. For `Cn1c(-c2ccco2)nc2cc3ccccc3cc21`, the IC50 was 39.7 µM. `CCCn1c(C(C)NC(C)=O)nc2ccccc21` (centres undefined) was tested, and the IC50 was > 100 µM (inactive). For `CCc1cc(-c2n[nH]c(C)c2Oc2ccc(C(C)C)cc2)c(O)cc1O`, the IC50 was 31.4 µM. For `CCCCCCCCCCCCCCCC[n+]1ccc(C(N)=O)cc1`, the IC50 was 1.1 µM. With `O=C(O)c1cc2c(s1)-c1ccccc1CC2` the IC50 was 30.5 µM. With `OCCN(CCO)CC(O)COc1ccc(C23CC4CC(CC(C4)C2)C3)cc1` (centres undefined) the IC50 was 35.7 µM. With `COc1cc(CNCCN2CCOCC2)ccc1OCc1cccc(Cl)c1` the IC50 was > 100 µM (inactive). For `O=[N+]([O-])c1cccc(/C=N/n2cnnc2)c1O`, the IC50 was 19.7 µM. `Cc1ccc(OC(=S)Nc2ccc(O)cc2)cc1` gave an IC50 of 14 µM. Compound `Nc1[nH]c(=O)ncc1F` has an IC50 of 11.8 µM. `O=C(OCn1ncc(Cl)c(Cl)c1=O)c1ccccc1Cl` showed an IC50 of 20.7 µM. For `CCOC(=O)C(=NC(C)CC)NNc1ccc(Br)cc1` (centres undefined), the IC50 was 8.41 µM. Work on `O=C(O)c1cc2c(ccc3ccccc32)oc1=O` yielded an IC50 of 11.9 µM. For `O=C(Nc1nc(-c2ccccn2)cs1)C1COc2ccccc2O1` (centres undefined), the IC50 was 12.7 µM. In the case of `CCn1c(=O)c(C(=O)Nn2c(C)nc3ccccc3c2=O)c(O)c2ccccc21`, the IC50 is reported as 15.5 µM. `CCSc1nnc(NC(=O)c2ccccn2)s1` was tested, and the IC50 was 9.84 µM. `Cc1cc(O)c(/C=N/Nc2ccccc2)c(=O)o1` showed an IC50 of 25.2 µM. `CC(C)c1ccc2c(c1)C1(NN=C(c3ccccc3)S1)C(=O)N2` (centres undefined) gave an IC50 of 26.3 µM. `C/C(=N\Nc1ccc([N+](=O)[O-])cc1)c1ccc(N)cc1` gave an IC50 of 40.2 µM. Compound `Cc1cccnc1Nc1nc(-c2ccccn2)cs1` has an IC50 of 45.7 µM. Compound `CCCCCC/C(=N/O)c1ccccn1` has an IC50 of 10.3 µM. Work on `Cc1ccc(N2CCOCC2)c2c1C(=O)c1ccccc1C2=O` yielded an IC50 of 9.55 µM. In the case of `COc1cccc(/C=N/N2C(=O)CSC2=S)c1O`, the IC50 is reported as > 100 µM (inactive). With `c1ccc(-c2nc3c(ccc4ccccc43)[nH]2)nc1` the IC50 was 30.7 µM. `C=CCNC(=S)N/N=C(\C)c1ccccn1` gave an IC50 of 17.6 µM. Work on `COC1=C(N)C(=O)c2nc(-c3nc(C(=O)O)c(C)c(-c4ccc(OC)c(OC)c4O)c3N)ccc2C1=O` yielded an IC50 of 0.212 µM. `CN1CCN(CC(=O)N2CCn3c4c(c5cc(C6CCCCC6)ccc53)CCCC42)CC1` (centres undefined) was tested, and the IC50 was > 100 µM (inactive). `O=C(/C=C/N1CCOCC1)c1ccc(-c2ccccc2)cc1` gave an IC50 of 11.5 µM. `CC1(C)CC(=NOC(=O)c2ccccc2)CC(C)(C)N1O` gave an IC50 of 8.22 µM. Compound `CN1CSC(=S)N(C)C1` has an IC50 of 17.3 µM. `Cc1cc(O)c(/C=N/Nc2ccc(Cl)cc2)c(=O)o1` gave an IC50 of 5.9 µM. With `CC1Cc2ccccc2N1C(=O)CSC1=NCCS1` (centres undefined) the IC50 was > 100 µM (inactive). For `O=C(Oc1csc(=S)n1C(=O)c1ccccc1)c1ccccc1`, the IC50 was > 100 µM (inactive). With `Fc1ccc2nc3[nH]c4ccccc4c3nc2c1` the IC50 was 39.9 µM. In the case of `CC12C(=O)N(c3cccc4cccnc34)C(=O)C1C1C=CC2C1` (centres undefined), the IC50 is reported as > 100 µM (inactive). For `CCOc1ccccc1C1CC(c2ccc(Br)cc2)Nc2nc(N)nn21` (centres undefined), the IC50 was > 100 µM (inactive). In the case of `Cc1cc(C)cc(N=Cc2ccc([N+](=O)[O-])s2)c1`, the IC50 is reported as 13.1 µM. For `Nc1nc2sc3c(c2c(=O)s1)CCCC3`, the IC50 was > 100 µM (inactive). Work on `COc1cc(OC)nc(NC(=O)CS(=O)(=O)c2ccccc2)n1` yielded an IC50 of 33.4 µM. `O=C(Nc1nnc(C2CC2)s1)c1ccccn1` showed an IC50 of 42.6 µM. `CCCCS(=O)(=O)/C=C\C=C/S(=O)(=O)CCCC` was tested, and the IC50 was > 100 µM (inactive). Work on `NC(N)=N/N=C/c1ccc(OCc2ccc(Cl)cc2)cc1` yielded an IC50 of 48.4 µM. For `COC(=O)Cn1c2ccccc2c2nc(C)sc21`, the IC50 was > 100 µM (inactive). In the case of `Cc1cc(N2CCN(C(=O)c3ccco3)CC2)n2ncc(-c3ccccc3)c2n1`, the IC50 is reported as > 100 µM (inactive). `Cc1ccc2c(c1)c1c(n2C)-c2[nH]ncc2CC1` gave an IC50 of 35.3 µM. `O=C(CC(O)(C(F)(F)F)C(F)(F)F)Nc1ccc(Cl)c(Cl)c1` showed an IC50 of 12 µM. For `CCOC(=O)c1cc([N+](=O)[O-])c([N+](=O)[O-])cc1NC(C)=O`, the IC50 was under 0.098 µM. Compound `CCc1cccc(C)c1NC(=S)NCCc1c(C)[nH]c2ccc(C)cc12` has an IC50 of 41 µM. In the case of `C=CCn1c2ccccc2c2nnc(SCN3C(=O)c4ccccc4C3=O)nc21`, the IC50 is reported as > 100 µM (inactive). `COc1ccc(-c2cc(C(=O)N3CCN(c4ncccn4)CC3)c3ccccc3n2)c(OC)c1` gave an IC50 of 49.8 µM. For `Cc1ccc(/C=C2\C(=O)Nc3ccccc32)o1`, the IC50 was > 100 µM (inactive). With `Cc1ccc(COc2ccc(Br)cc2/C=N/O)cc1` the IC50 was > 100 µM (inactive). For `C(=C\c1nc(N2CCCCCC2)c2ccccc2n1)/c1ccccc1`, the IC50 was 42.1 µM. `COc1ccc2[nH]c3c(Cl)ncnc3c2c1` gave an IC50 of 18.5 µM. For `O=C(Nc1nc(-c2ccccn2)cs1)c1ncc(Cl)c(Cl)c1Cl`, the IC50 was > 100 µM (inactive). For `Cc1ccc(C(NC(=O)C(C)C)c2cc([N+](=O)[O-])c3cccnc3c2O)cc1` (centres undefined), the IC50 was 11.4 µM. Compound `O=c1c(-c2ccccc2)nc(-c2ccccc2)cn1O` has an IC50 of 15.1 µM. For `CC(C)N=c1scc(-c2ccco2)n1/N=C/c1ccc(O)c(O)c1`, the IC50 was 49.1 µM. For `Brc1ccccc1-c1nnc(CSc2nnc3sc4ccccc4n23)o1`, the IC50 was > 100 µM (inactive). Work on `Oc1cccc2ccc(/C=C/c3cccs3)nc12` yielded an IC50 of 37.5 µM. In the case of `COc1cc2c(cc1OC)CN(C(=O)CSc1nnc3scc(-c4ccccc4)n13)CC2`, the IC50 is reported as > 100 µM (inactive). For `C=C(C)COc1ccc(-c2[nH]ncc2Oc2ccccc2OC)c(O)c1`, the IC50 was > 100 µM (inactive). `O=[N+]([O-])c1cc(/C=N/O)ccc1Sc1ccccc1` was tested, and the IC50 was > 100 µM (inactive). Work on `C/C(=N\Nc1nc2c(s1)CCCC2)c1ccccc1` yielded an IC50 of 31.9 µM. For `O=C(O)CCn1cc(/C=C/C(=O)c2ccc(Cl)cc2)c(-c2ccc(Br)cc2)n1`, the IC50 was > 100 µM (inactive). With `CCN1/C(=C/c2ccc3ccc(C)cc3[n+]2CC)Sc2ccccc21` the IC50 was 21.4 µM. With `Oc1ccc(COCc2ccccc2)c2cccnc12` the IC50 was 6.43 µM. With `O=c1oc2ccccc2c(N2CCCC2)c1CN1CCCC1` the IC50 was > 100 µM (inactive). With `O=C(Cc1ccccc1)NCCc1cn2ccsc2n1` the IC50 was > 100 µM (inactive). `CC(C)C(=O)NC(c1ccccc1)c1cc([N+](=O)[O-])c2cccnc2c1O` (centres undefined) gave an IC50 of 14.2 µM. With `O=C(O)c1ccccc1Nc1ccc([N+](=O)[O-])cc1` the IC50 was 10.8 µM. Work on `COc1ccccc1OCCCc1c(C)n[nH]c1C` yielded an IC50 of 8.78 µM. With `O=c1cc(-c2ccncc2)oc2ccccc12` the IC50 was 51.1 µM. For `Cc1cc([N+](=O)[O-])ccc1-c1ccc(C2Nc3ccccc3C(=O)N2O)o1` (centres undefined), the IC50 was > 100 µM (inactive). `Cc1nnc(C)n1/N=C/c1cc(Br)cc(Br)c1O` gave an IC50 of 9.23 µM. In the case of `c1cncc(-c2nnc(-c3cccnc3)nn2)c1`, the IC50 is reported as 25.9 µM. `CC(Oc1ccc2ccccc2c1)C(=O)NNC(=S)NC(=O)c1ccco1` (centres undefined) gave an IC50 of 17.7 µM. Compound `Cc1oc(-c2ccc3c(c2)OCCO3)cc1C(=O)O` has an IC50 of 16.8 µM. For `COc1ccc(C(=O)/C=C/Nc2ccc(C)cn2)cc1OC`, the IC50 was > 100 µM (inactive). `Cn1c(N2CCOCC2)c(/C=N/OC(=O)c2ccc(F)cc2)c2ccccc21` was tested, and the IC50 was 42.2 µM. Work on `CN(C)c1ccc(/C=C/c2ccc3ccccc3[n+]2C)cc1` yielded an IC50 of 26.4 µM. With `O=C(/C(=C/O)N=Nc1ccccc1)c1ccncc1` the IC50 was 14.5 µM. For `O=c1[nH]c2ccccc2c2nc3ccccn3c12`, the IC50 was 40 µM. `O=C(O)CCSc1nnc(-c2ccccc2)n1-c1ccccc1` was tested, and the IC50 was > 100 µM (inactive). With `CCOC(=O)/C(=N\Nc1ccccc1Cl)N1CCN(Cc2ccccc2)CC1` the IC50 was 17.9 µM. In the case of `CCCCCC1CCC(C(=O)O)CC1` (centres undefined), the IC50 is reported as > 100 µM (inactive). With `Oc1c(Br)cc(Cl)cc1C=Nc1ccccc1Br` the IC50 was 27.1 µM. For `Cc1cc(-c2n[nH]c(=S)n2/N=C/c2cc([N+](=O)[O-])ccc2Cl)n[nH]1`, the IC50 was > 100 µM (inactive). Work on `COc1ccc(C(=O)/C=C/N2CCCCC2)cc1OC` yielded an IC50 of 21.4 µM. Work on `CCOC(=O)c1c(-c2ccc(-c3ccccc3)cc2)csc1NC(=O)CCN1CCOCC1` yielded an IC50 of 19.1 µM. In the case of `CNc1nnc(-c2cc3cc(Cl)ccc3oc2=O)s1`, the IC50 is reported as > 100 µM (inactive). `O=C(O)CCC(=O)N1CCN(c2nc(-c3ccccc3Cl)c3cc(Br)ccc3n2)CC1` gave an IC50 of 29.3 µM. In the case of `CCOC(=O)/C(=N\Nc1cccc(C(F)(F)F)c1)N(CCOC)CCOC`, the IC50 is reported as > 100 µM (inactive). For `c1ccc2c(c1)C(=Nn1cnnc1)c1ccccc1-2`, the IC50 was > 100 µM (inactive). In the case of `Oc1c(Cl)cc(Cl)cc1Sc1cc(Cl)cc(Cl)c1O`, the IC50 is reported as 25.4 µM. For `CCCOC(=O)c1ccc(Oc2cn[nH]c2-c2ccc(OCC)cc2O)cc1`, the IC50 was > 100 µM (inactive). For `CC(=O)N1CCN(c2ccc(OC[C@H]3CO[C@](Cn4ccnc4)(c4ccc(Cl)cc4Cl)O3)cc2)CC1`, the IC50 was 9.27 µM. `Cn1cccc1C(=O)NC(=O)CSc1cccc[n+]1[O-]` gave an IC50 of 21.8 µM. For `Cc1ccc(C)c(-n2nnnc2SCC(=O)Nc2cccc(-c3nnc4n3CCCCC4)c2)c1`, the IC50 was > 100 µM (inactive). Work on `Cc1c(N=Cc2cc(Br)cc(Br)c2O)cccc1C(=O)O` yielded an IC50 of 23.7 µM. `Cc1cc(C)c2c(N=NN3CCCCC3)[nH]nc2n1` gave an IC50 of 5.02 µM.
